Results: patent publication US11440913B2, “Aminoimidazopyridazines as kinase inhibitors” (BRISTOL-MYERS SQUIBB COMPANY, priority 2017, dated 2022)
Where a name gives a salt, the structure may show the parent alone. Read-outs that look alike come from different tables or passages of the source.

Columns and labels:
[1] = biological target: His-GST-TVMV-hRIPK1(1-324) (Homo sapiens (Human), UniProt Q13546); assay: RIPK1 HTRF Binding Assay; details: HTRF binding, 1 h at rt, read-out: RIPK1 (IC50)
In short: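 HTRF probe-displacement binding: 1 nM His-GST-TVMV-hRIPK1(1-324) (baculovirus construct), 90.6 nM probe, 0.2 nM anti-GST-Tb in 20 mM HEPES, 10 mM MgCl2, 0.015% Brij-35, 4 mM DTT, 0.05 mg/mL BSA. Incubated 1 h at rt; FRET 520/495 nm ratio, inhibition relative to DMSO-only wells.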

[2] = tested on: MLKL phosphorylation in HT29-L23 human colorectal adenocarcinoma cells; assay: MLKL Phosphorylation High-Content Assay; type: cell-based; details: 6 h, necroptosis induced with TNFα, SMAC mimetic and Z-VAD, read-out: pMLKL (IC50)
In short: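 HT29-L23 cells pretreated 30 min at 37 °C with compound (6.25 to 0.106 μM final), then necroptosis induced with TNFα 35 ng/mL, SMAC mimetic 700 nM and Z-VAD 140 nM for 6 h. Fixed cells immunostained for MLKL pS358 and imaged; IC50 and Ymax from 4-parameter logistic fit.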

Chain of His-GST-TVMV-hRIPK1(1-324) (Q13546 1-324): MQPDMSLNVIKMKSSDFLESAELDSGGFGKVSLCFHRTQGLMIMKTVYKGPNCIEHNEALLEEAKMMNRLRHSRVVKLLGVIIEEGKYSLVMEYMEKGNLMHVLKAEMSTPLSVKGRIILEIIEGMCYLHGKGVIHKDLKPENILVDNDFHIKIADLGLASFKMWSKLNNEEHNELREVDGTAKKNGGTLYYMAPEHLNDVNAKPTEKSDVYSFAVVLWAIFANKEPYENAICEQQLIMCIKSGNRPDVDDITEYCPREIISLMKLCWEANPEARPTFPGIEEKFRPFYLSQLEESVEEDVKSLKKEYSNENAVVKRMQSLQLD

Row | SMILES | IC50 [1] [nM] | IC50 ([2]; Homo sapiens) [nM] | IC50 [2] [nM] | IC50 ([1]; TFA) [nM] | IC50 ([2]; TFA) [nM]
1 | CC(=O)Nc1cn2nc(-c3ccc(C)c(C(=O)NCc4cc(F)ccc4-c4cnn(C)c4)c3)ccc2n1 [Example 403, 5-{2-acetamidoimidazo [1,2-b]pyridazin-6-yl}-N-{[5-fluoro-2-(1-methyl-1H-pyrazol-4-yl)phenyl]methyl}-2-methylbenzamide] | 67 | 262 |  |  | 
2 | CC(=O)Nc1cn2nc(-c3cc(F)cc(C(=O)NCC[C@@H](O)c4ccc(Cl)cc4)c3)ccc2n1 [Example 370, N-[(3R)-3-(4-chlorophenyl)-3-hydroxypropyl]-3-{2-acetamidoimidazo [1,2-b]pyridazin-6-yl}-5-fluorobenzamide] | 34 | 210 |  |  | 
3 | CC(=O)Nc1cn2nc(-c3ccc(Cl)c(C(=O)N[C@H](C)c4cc(OC(F)(F)F)ccc4F)c3F)ccc2n1 [Example 388, 6-chloro-3-{2-acetamidoimidazo [1,2-b]pyridazin-6-yl}-2-fluoro-N-[(1R)-1-[2-fluoro-5-(trifluoromethoxy)phenyl]ethyl] benzamide] | 7 | 2 |  |  | 
4 | [2H]C([2H])([2H])Oc1ncc(-c2ccc3nc(NC(C)=O)cn3n2)cc1C(=O)NCc1cc(F)cc(F)c1OCC1CC1 [Example 55, N-{[2-(cyclopropylmethoxy)-3,5-difluorophenyl]methyl}-5-{2-acetamidoimidazo[1,2-b]pyridazin-6-yl}-2-(D3)methoxypyridine-3-carboxamide, TFA] | 1 | 3 |  |  | 
5 | COc1ncc(-c2ccc3nc(NC(C)=O)cn3n2)cc1C(=O)NCc1ccc(F)c(F)c1OC(C)C1CC1 (centres unmarked) [Example 132, N-{[2-(1-cyclopropylethoxy)-3,4-difluorophenyl]methyl}-5-{2-acetamidoimidazo[1,2-b]pyridazin-6-yl}-2-methoxypyridine-3-carboxamide] | 10 |  | 64 |  | 
6 | CC(=O)Nc1cn2nc(-c3ccc(Cl)c(C(=O)NCC[C@H](O)c4ccc(Cl)cc4)c3F)ccc2n1 [Example 390, 6-chloro-N-[(3S)-3-(4-chlorophenyl)-3-hydroxypropyl]-3-{2-acetamidoimidazo [1,2-b]pyridazin-6-yl}-2-fluorobenzamide] | 5 | 3 |  |  | 
7 | COc1nc(C)c(-c2ccc3nc(NC(C)=O)cn3n2)cc1C(=O)NCC[C@H](O)c1ccc(Cl)cc1 [Example 301, N-[(3S)-3-(4-chlorophenyl)-3-hydroxypropyl]-5-{2-acetamidoimidazo[1,2-b]pyridazin-6-yl}-2-methoxy-6-methylpyridine-3-carboxamide] | 25 | 22 |  |  | 
8 | COc1ncc(-c2ccc3nc(NC(C)=O)cn3n2)cc1C(=O)NCC[C@H](O)c1ccc(Cl)cc1 [Example 119, N-[(3S)-3-(4-chlorophenyl)-3-hydroxypropyl]-5-{2-acetamidoimidazo[1,2-b]pyridazin-6-yl}-2-methoxypyridine-3-carboxamide] | 116 | 94 |  |  | 
9 | CC(=O)Nc1nc2ccc(-c3cnc(C)c(C(=O)NCc4cccc(OC(F)(F)F)c4)c3)nn2c1C [Example 251, 5-{2-acetamido-3-methylimidazo[1,2-b]pyridazin-6-yl}-2-methyl-N-{[3-(trifluoromethoxy)phenyl]methyl}pyridine-3-carboxamide] | 53 | 305 |  |  | 
10 | [2H]C([2H])([2H])[C@@H](NC(=O)c1cnc(C)c(-c2ccc3nc(NC(C)=O)cn3n2)c1)c1cc(OC(F)(F)F)ccc1F [Example 229, 5-{2-acetamidoimidazo[1,2-b]pyridazin-6-yl}-N-[(1R)-1-[2-fluoro-5-(trifluoromethoxy)phenyl] (2,2,2-deutero)ethyl]-6-methylpyridine-3-carboxamide] | 134 | 436 |  |  | 
11 | CC(=O)Nc1cn2nc(-c3ccc(C)c(C(=O)NCc4ccc(F)cc4C(=O)N4CCC(F)(F)C4)c3)ccc2n1 [Example 405, N-{[2-(3,3-difluoropyrrolidine-1-carbonyl)-4-fluorophenyl]methyl}-5-{2-acetamidoimidazo [1,2-b]pyridazin-6-yl}-2-methylbenzamide] | 14 | 99 |  |  | 
12 | CC(=O)Nc1cn2nc(-c3cnc(C)c(C(=O)NCc4ccccc4OC(C)C)c3)ccc2n1 [Example 20, 5-{2-acetamidoimidazo[1,2-b]pyridazin-6-yl}-2-methyl-N-{[2-(propan-2-yloxy)phenyl]methyl}pyridine-3-carboxamide] | 46 | 63 |  |  | 
13 | COc1ncc(-c2ccc3nc(NC(C)=O)c(C)n3n2)cc1C(=O)NCc1cc(OC(F)(F)F)ccc1F [Example 6, 5-{2-acetamido-3-methylimidazo[1,2-b]pyridazin-6-yl}-N-{[2-fluoro-5-(trifluoromethoxy)phenyl]methyl}-2-methoxypyridine-3-carboxamide] | 25 | 10 |  |  | 
14 | COc1nc(C)c(-c2ccc3nc(NC(C)=O)cn3n2)cc1C(=O)NCc1cccc(OCC2CC2)c1 [Example 309, N-{[3-(cyclopropylmethoxy)phenyl]methyl}-5-{2-acetamidoimidazo[1,2-b]pyridazin-6-yl}-2-methoxy-6-methylpyridine-3-carboxamide] | 19 | 46 |  |  | 
15 | COc1nc(C)c(-c2ccc3nc(NC(C)=O)cn3n2)cc1C(=O)NC(C)c1cc(OC(F)(F)F)ccc1F (centres unmarked) [Example 279, 5-{2-acetamidoimidazo[1,2-b]pyridazin-6-yl}-N-{1-[2-fluoro-5-(trifluoromethoxy)phenyl]ethyl}-2-methoxy-6-methylpyridine-3-carboxamide, TFA] |  |  |  | 47 | 51
16 | COc1nc(C)c(-c2ccc3nc(NC(C)=O)cn3n2)cc1C(=O)NCc1ccccc1OCC1CC1 [Example 318, N-{[2-(cyclopropylmethoxy)phenyl]methyl}-5-{2-acetamidoimidazo[1,2-b]pyridazin-6-yl}-2-methoxy-6-methylpyridine-3-carboxamide] | 3 | 2 |  |  | 
17 | CC(=O)Nc1cn2nc(-c3cc(C(=O)N[C@@H](C)c4cc(OC(F)(F)F)ccc4F)cnc3C)ccc2n1 [Example 228, 5-{2-acetamidoimidazo[1,2-b]pyridazin-6-yl}-N-[(1S)-1-[2-fluoro-5-(trifluoromethoxy)phenyl]ethyl]-6-methylpyridine-3-carboxamide] | 16 | 193 |  |  | 
18 | CC(=O)Nc1cn2nc(-c3cnc(C)c(C(=O)NCc4c(F)cccc4OC4CCCC4)c3)ccc2n1 [Example 223, N-{[2-(cyclopentyloxy)-6-fluorophenyl]methyl}-5-{2-acetamidoimidazo[1,2-b]pyridazin-6-yl}-2-methylpyridine-3-carboxamide] | 4 | 3 |  |  | 
19 | [2H]C([2H])([2H])[C@@H](NC(=O)c1cc(-c2ccc3nc(NC(C)=O)cn3n2)cnc1C)c1cc(OC(F)(F)F)ccc1F [Example 199, 5-{2-acetamidoimidazo[1,2-b]pyridazin-6-yl}-N-[(1R)-1-[2-fluoro-5-(trifluoromethoxy)phenyl](2,2,2-deutero)ethyl]-2-methylpyridine-3-carboxamide] | 13 | 17 |  |  | 
20 | COc1ncc(-c2ccc3nc(NC(C)=O)cn3n2)cc1C(=O)NCc1cc(F)cc(F)c1OC1CC1 [Example 118, N-[(2-cyclopropoxy-3,5-difluorophenyl)methyl]-5-{2-acetamidoimidazo[1,2-b]pyridazin-6-yl}-2-methoxypyridine-3-carboxamide] | 2 | 28 |  |  | 
21 | COc1ncc(-c2ccc3nc(NC(C)=O)c(C)n3n2)cc1C(=O)NCc1ccc(F)c(OC(F)(F)F)c1 [Example 255, 5-{2-acetamido-3-methylimidazo[1,2-b]pyridazin-6-yl}-N-{[4-fluoro-3-(trifluoromethoxy)phenyl]methyl}-2-methoxypyridine-3-carboxamide] | 87 | 263 |  |  | 
22 | COc1ncc(-c2ccc3nc(NC(C)=O)cn3n2)cc1C(=O)NCc1c(F)cccc1OCC(F)(F)F [Example 102, 5-{2-acetamidoimidazo[1,2-b]pyridazin-6-yl}-N-{[2-fluoro-6-(2,2,2-trifluoroethoxy)phenyl]methyl}-2-methoxypyridine-3-carboxamide] | 7 | 10 |  |  | 
23 | CC(=O)Nc1cn2nc(-c3cncc(C(=O)NCc4ncccc4OC4CCCC4)c3)ccc2n1 [Example 241, N-{[3-(cyclopentyloxy)pyridin-2-yl]methyl}-5-{2-acetamidoimidazo [1,2-b]pyridazin-6-yl}pyridine-3-carboxamide] | 35 | 277 |  |  | 
24 | [2H]C([2H])([2H])[C@@H](NC(=O)c1c(F)ccc(-c2ccc3nc(NC(C)=O)cn3n2)c1F)c1cc(OC(F)(F)F)ccc1F [Example 380, 3-{2-acetamidoimidazo [1,2-b]pyridazin-6-yl}-2,6-difluoro-N-[(1R)-1-[2-fluoro-5-(trifluoromethoxy)phenyl](2,2,2-Â^2Hâ,f)ethyl} benzamide] | 3 | 9 |  |  | 
25 | CC(=O)Nc1cn2nc(-c3cncc(C(=O)NCc4cc(OC(F)(F)F)ccc4F)c3)ccc2n1 [Example 237, 5-{2-acetamidoimidazo[1,2-b]pyridazin-6-yl}-N-{[2-fluoro-5-(trifluoromethoxy)phenyl]methyl} pyridine-3-carboxamide] | 45 | 77 |  |  | 
